SMILES strings stand for the structures. Where only a bound is given, the exact number is not on record here.

Data set [1] in a line: physchem. Format: physicochemical. An excerpt:
S-[2-[(1-Iminoethyl)amino]ethyl]-2-methyl-L-cysteine maleate hydrochloride crystals are birefringent with positive elongation when analyzed by polarized light microscopy.
Examples 7 and 8 only differ in the nature of agitation afforded to the system. […] The bead was agitated with a magnetic plate. […] Both the examples used 2.0 molar equivalents of maleic acid and 0.5 molar equivalent of HCl for each mole of S-[2-[(1-Iminoethyl)amino]ethyl]-2-methyl-L-cysteine. […] In Example 9, the water content of the system was 2.3% before the addition of acetonitrile, while the ratio of acetonitrile to DMF was 1.98 on weight/weight basis.

Data set [2] is described as follows: Moisture sorption study by DVS moisture balance. To be noted: 25° C., sample of Example 10. Format: physicochemical. An excerpt:
FIG. 4 is a plot of a moisture sorption study of the crystalline S-[2-[(1-Iminoethyl)amino]ethyl]-2-methyl-L-cysteine maleate hydrochloride. […] Between 70 and 9% R.H., another 58% moisture was taken up by the solids. It is presumed that at 90% R.H. the crystal structure was destroyed to produce highly hygroscopic amorphous solids. During the de-sorption cycle (from 90 to 30% R.H.), these solids transformed into a mixture of form II of the crystalline S-[2-[(1-Iminoethyl)amino]ethyl]-2-methyl-L-cysteine maleate and amorphous zwitterion with excess hydrogen chloride. Subsequent de-sorption and re-sorption behavior was very similar to form II of the crystalline S-[2-[(1-Iminoethyl)amino]ethyl]-2-methyl-L-cysteine maleate. Powder x-ray analysis on the solids at the end of the experiment confirmed the presence of both form II the crystalline S-[2-[(1-Iminoethyl)amino]ethyl]-2-methyl-L-cysteine maleate and amorphous solids.

Data set [3] is classed as physicochemical. An excerpt:
Additionally, the presence of excess maleic acid dramatically increases the solubility.
1-Butanol was selected as the best solvent to explore the possibility of utilizing a high boiling solvent that can easily be exchanged with water from the upstream aqueous chromatography purification step. […] This process was again designed to be very similar to the DMF/acetonitrile process. Following is a description of the initial process run at the 1 L scale.

Data set [4] in a line: Powder flow, aperture flow tester. Format: physicochemical. From the text:
Orderly packed agglomerates of S-[2-[(1-Iminoethyl)amino]ethyl]-2-methyl-L-cysteine maleate hydrochloride crystals made in Example 20 were studied to determine its powder characteristics that are relevant to the development of a pharmaceutical composition with S-[2-[(1-Iminoethyl)amino]ethyl]-2-methyl-L-cysteine maleate hydrochloride together with a pharmaceutically acceptable carrier. Before testing, the solids were passed through 80-mesh screen corresponding to 177 micrometer opening in order to fragment some very large loose aggregates of the orderly packed agglomerates. The properties tested included powder flow characteristics, powder particle size distribution, powder bulk and tapped density and powder compressibility and compaction. Powder flow was evaluated using an aperture flow tester, measured as the smallest opening at which the powder freely flows through. The powder flow test was repeatedly successful through a 6-mm aperture opening. A powder flow of 6-mm is considered good for formulation development of S-[2-[(1-Iminoethyl)amino]ethyl]-2-methyl-L-cysteine maleate hydrochloride crystals. Successful repetition of flow through a narrower 4-mm opening was, however, dependent on how the powder was introduced to the tester.

The nature of data set [5]: Particle size distribution by sieve analysis. In kind it is physicochemical. An excerpt: (§1) Orderly packed agglomerates of S-[2-[(1-Iminoethyl)amino]ethyl]-2-methyl-L-cysteine maleate hydrochloride crystals made in Example 20 were studied to determine its powder characteristics that are relevant to the development of a pharmaceutical composition with S-[2-[(1-Iminoethyl)amino]ethyl]-2-methyl-L-cysteine maleate hydrochloride together with a pharmaceutically acceptable carrier. Before testing, the solids were passed through 80-mesh screen corresponding to 177 micrometer opening in order to fragment some very large loose aggregates of the orderly packed agglomerates. The properties tested included powder flow characteristics, powder particle size distribution, powder bulk and tapped density and powder compressibility and compaction.
Particle size distribution of the powder was measured using sieve analysis. The mean particle size distribution was calculated using the geometric mean method. […] Only 1.63% of material was considered as fines, less than 75-μm, with more than 90% within 105-250-μm. More than 75% of the material was within 105-150-μm. The tight range in the powder particle size distribution for orderly packed agglomerates is between 100 and 200-μm, which is highly desirable for the development of a pharmaceutical composition with S-[2-[(1-Iminoethyl)amino]ethyl]-2-methyl-L-cysteine maleate hydrochloride together with a pharmaceutically acceptable carrier.

Data set [6] is described as follows: Bulk and tapped powder density. Format: physicochemical. To be noted: orderly packed agglomerates of Example 20.
Description: as §1
Bulk powder density was evaluated as the mass of material within a 50-ml graduated cylinder.

Data set [7] is described as follows: Direct compression without excipients: tablet hardness and disintegration. Format: physicochemical. To be noted: for tablet hardness: 100-mg compacts, no excipients. As to the method: The powder was evaluated for direct compression without any excipients. Compacts of 100-mg in weight were manufactured using an 8/32 inch (6.35-mm) round concave tooling. Tablets were compressed at various compression forces and evaluated for strength, thickness and disintegration. […] Relatively strong small tablets ( 8/32 inch), as hard as 11-kP, are possible with compression force between 900 and 1000 kg. Tablet strength reaches an apparent maximum between 900 and 1000 kg compression force. Minor adhesion to the punch and die walls were observed during compression experiments. However, the sticking was considered to be a minor problem and could easily be resolved by using an appropriate lubricant. Tablet disintegration times were also evaluated for compacts of orderly packed agglomerates of S-[2-[(1-Iminoethyl)amino]ethyl]-2-methyl-L-cysteine maleate hydrochloride crystals. Three tablets were compressed with compression forces between 500 and 600, corresponding to 8 kP tablet hardness for this material.

[8] abbreviates: orderly packed agglomerates of Example 20.

As usually defined, the solubility is how much of the substance goes into solution per volume. Read a low solubility as a poorly soluble substance. Turning to `CC(=N)NCCSC[C@](C)(N)C(=O)O.Cl.O=C(O)/C=C\C(=O)O` [S-[2-[(1-Iminoethyl)amino]ethyl]-2-methyl-L-cysteine maleate hydrochloride], the “solubility in water (in words)” value in data set [1] is “highly soluble in water”. Moreover, the solubility in data set [1] (water) is over 150 mg/mL. Besides, in data set [2] (between 0 and 70% relative humidity), the moisture uptake result is “approximately 1.5%”. In addition, the “further moisture taken up by the solids” value in data set [2] (between 70 and 9% R.H. as printed) was found to be 58%. For the same molecule, in data set [3], the “solubility in 1-butanol” value stood at 0.05 wt % and the solubility in methanol is 6.2 wt %. In data set [4] (setting [8]), the compressibility index is on record as 17.8%. The “powder flow, smallest aperture opening at which the powder freely flows through” value in data set [4] (orderly packed agglomerates of Example 20, passed through 80-mesh screen) is recorded as 6 mm. Moreover, in data set [5] (setting [8]), the “fraction of fines, less than 75-μm” value was found to be 1.63%; the “fraction of material within 105-150-μm” value is listed as “More than 75%”; the “fraction of material within 105-250-μm” value was “more than 90%”. In data set [5] (orderly packed agglomerates of Example 20, geometric mean method), this molecule yielded a mean particle size of 134 micrometers. In data set [6], the bulk powder density came out at 0.41 g/mL and the tapped density came to 0.50 g/mL. In data set [7] (8/32 inch, compression force between 900 and 1000 kg), the tablet hardness is on record as at most 11 kP. This molecule came in with a tablet hardness in data set [7] (compression forces between 500 and 600) of 8 kP. Besides, the tablet disintegration time result in data set [7] (three tablets, compression forces between 500 and 600, 8 kP hardness) was “less than 2 minutes”.

With `CC(=N)NCCSC[C@](C)(N)C(=O)O` [S-[2-[(1-Iminoethyl)amino]ethyl]-2-methyl-L-cysteine], the “solubility in water (in words)” value in data set [1] is reported as “highly soluble in water”.

These data come from patent US7767850B2, “S-[2-[(1-iminoethy)amino]ethyl]-2-methyl-L-cysteine maleate hydrochloride crystalline salt” (Pfizer Inc., priority 2003, dated 2010).
